Assay results as given in PubChem BioAssay (NCI).
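These data come from cells grown in 96-well plates and exposed to compound for 48 hours at five concentrations. GI50 is the concentration that inhibits growth by half. TGI: total growth inhibition.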

Tested on: OVCAR-5 ovarian
Assay: inhibition of tumour cell growth, NCI panel, 48 h

Question: For `CC(=O)OC1C(Oc2c(C)cc3c(c2O)[C@@H](C)CC[C@@H]3[C@@H](C)CCC=C(C)C)OCC(O)C1O` (some centres undefined), which TGI is on record?
Answer: Its TGI is 30.6 µM.

Question: Which TGI does the source give for `Cc1ccc2c(c1)CC1(Cc3ccccc3C1=O)C2=O` (centres undefined) here?
Answer: Its TGI is > 100 µM.

Question: For `Cc1sc2nc(-c3cccc([N+](=O)[O-])c3)c(/C=N/N=C(N)N)n2c1C`, which TGI is on record?
Answer: The TGI was 3.06 µM.

Question: `CSc1cc(Cl)c(C)cc1S(=O)(=O)NC(=O)NNc1cccc(C(F)(F)F)n1` was tested. Which TGI did it give?
Answer: The TGI was > 100 µM.

Question: How did the TGI turn out when `COc1cccc2c1C(=O)c1c(O)c3c(c(O)c1C2=O)CC(O)(C(=O)CO)CC3OC1CC(N2CCOCC2C#N)C(O)C(C)O1` (centres undefined) was run?
Answer: Its TGI is 19.1 µM.

Question: Which GI50 does the source give for `CN1CCN(CCCNc2nc3ccc(Oc4ccc(NC(=O)Nc5cc(C(F)(F)F)ccc5F)cc4)cc3[nH]2)CC1` here?
Answer: Its GI50 is 6.75 µM.

Question: And the TGI?
Answer: The TGI was > 20.7 µM.

Question: With `CCO/C=N\C1=C(C#N)SC2=N/C(=C\c3ccc(OC)cc3)C(=O)N21` as the compound, how does the TGI read?
Answer: Its TGI is > 100 µM.

Tested on: LOX IMVI melanoma
Assay: inhibition of tumour cell growth, NCI panel, 48 h

Question: For `CC(=O)OC1C(Oc2c(C)cc3c(c2O)[C@@H](C)CC[C@@H]3[C@@H](C)CCC=C(C)C)OCC(O)C1O` (some centres undefined), which TGI is on record?
Answer: Its TGI is 32.5 µM.

Question: For `Cc1ccc2c(c1)CC1(Cc3ccccc3C1=O)C2=O` (centres undefined), which TGI is on record?
Answer: The TGI was > 100 µM.

Question: With `Cc1sc2nc(-c3cccc([N+](=O)[O-])c3)c(/C=N/N=C(N)N)n2c1C` as the compound, how does the TGI read?
Answer: Its TGI is 3.16 µM.

Question: Which TGI does the source give for `CSc1cc(Cl)c(C)cc1S(=O)(=O)NC(=O)NNc1cccc(C(F)(F)F)n1` here?
Answer: The TGI was > 100 µM.

Question: Which GI50 does the source give for `CN1CCN(CCCNc2nc3ccc(Oc4ccc(NC(=O)Nc5cc(C(F)(F)F)ccc5F)cc4)cc3[nH]2)CC1` here?
Answer: Its GI50 is 4.25 µM.

Question: What about the TGI of the same compound?
Answer: The TGI was 7.91 µM.

Question: Which TGI does the source give for `CCO/C=N\C1=C(C#N)SC2=N/C(=C\c3ccc(OC)cc3)C(=O)N21` here?
Answer: The TGI was > 100 µM.

Tested on: K-562 leukemia
Assay: inhibition of tumour cell growth, NCI panel, 48 h

Question: `CC(=O)OC1C(Oc2c(C)cc3c(c2O)[C@@H](C)CC[C@@H]3[C@@H](C)CCC=C(C)C)OCC(O)C1O` (some centres undefined) was tested. Which TGI did it give?
Answer: The TGI was 39.5 µM.

Question: `Cc1ccc2c(c1)CC1(Cc3ccccc3C1=O)C2=O` (centres undefined) was tested. Which TGI did it give?
Answer: Its TGI is > 100 µM.

Question: How did the TGI turn out when `CSc1cc(Cl)c(C)cc1S(=O)(=O)NC(=O)NNc1cccc(C(F)(F)F)n1` was run?
Answer: The TGI was > 100 µM.

Question: How did the GI50 turn out when `CN1CCN(CCCNc2nc3ccc(Oc4ccc(NC(=O)Nc5cc(C(F)(F)F)ccc5F)cc4)cc3[nH]2)CC1` was run?
Answer: Its GI50 is 4.84 µM.

Question: What about the TGI of the same compound?
Answer: Its TGI is 11.1 µM.

Question: Which TGI does the source give for `CCO/C=N\C1=C(C#N)SC2=N/C(=C\c3ccc(OC)cc3)C(=O)N21` here?
Answer: The TGI was > 100 µM.

Tested on: MCF7 breast
Assay: inhibition of tumour cell growth, NCI panel, 48 h

Question: How did the TGI turn out when `CC(=O)OC1C(Oc2c(C)cc3c(c2O)[C@@H](C)CC[C@@H]3[C@@H](C)CCC=C(C)C)OCC(O)C1O` (some centres undefined) was run?
Answer: Its TGI is 42.5 µM.

Question: Which TGI does the source give for `Cc1ccc2c(c1)CC1(Cc3ccccc3C1=O)C2=O` (centres undefined) here?
Answer: Its TGI is > 100 µM.

Question: How did the TGI turn out when `CSc1cc(Cl)c(C)cc1S(=O)(=O)NC(=O)NNc1cccc(C(F)(F)F)n1` was run?
Answer: The TGI was > 100 µM.

Question: What does the source list for `CN1CCN(CCCNc2nc3ccc(Oc4ccc(NC(=O)Nc5cc(C(F)(F)F)ccc5F)cc4)cc3[nH]2)CC1`?
Answer: GI50: 4.05 µM; TGI: 7.61 µM

Question: `CCO/C=N\C1=C(C#N)SC2=N/C(=C\c3ccc(OC)cc3)C(=O)N21` was tested. Which TGI did it give?
Answer: Its TGI is > 100 µM.

Tested on: OVCAR-3 ovarian
Assay: inhibition of tumour cell growth, NCI panel, 48 h

Question: `CC(=O)OC1C(Oc2c(C)cc3c(c2O)[C@@H](C)CC[C@@H]3[C@@H](C)CCC=C(C)C)OCC(O)C1O` (some centres undefined) was tested. Which TGI did it give?
Answer: Its TGI is 29.8 µM.

Question: With `Cc1ccc2c(c1)CC1(Cc3ccccc3C1=O)C2=O` (centres undefined) as the compound, how does the TGI read?
Answer: Its TGI is > 100 µM.

Question: With `Cc1sc2nc(-c3cccc([N+](=O)[O-])c3)c(/C=N/N=C(N)N)n2c1C` as the compound, how does the TGI read?
Answer: Its TGI is 4.02 µM.

Question: `CSc1cc(Cl)c(C)cc1S(=O)(=O)NC(=O)NNc1cccc(C(F)(F)F)n1` was tested. Which TGI did it give?
Answer: Its TGI is > 100 µM.

Question: Which TGI does the source give for `COc1cccc2c1C(=O)c1c(O)c3c(c(O)c1C2=O)CC(O)(C(=O)CO)CC3OC1CC(N2CCOCC2C#N)C(O)C(C)O1` (centres undefined) here?
Answer: The TGI was 3.28 µM.

Question: `CN1CCN(CCCNc2nc3ccc(Oc4ccc(NC(=O)Nc5cc(C(F)(F)F)ccc5F)cc4)cc3[nH]2)CC1` was tested. Which GI50 did it give?
Answer: Its GI50 is 4.49 µM.

Question: What about the TGI of the same compound?
Answer: The TGI was 9.65 µM.

Tested on: T-47D breast
Assay: inhibition of tumour cell growth, NCI panel, 48 h

Question: For `CC(=O)OC1C(Oc2c(C)cc3c(c2O)[C@@H](C)CC[C@@H]3[C@@H](C)CCC=C(C)C)OCC(O)C1O` (some centres undefined), which TGI is on record?
Answer: The TGI was 43.5 µM.

Question: How did the TGI turn out when `Cc1ccc2c(c1)CC1(Cc3ccccc3C1=O)C2=O` (centres undefined) was run?
Answer: Its TGI is > 100 µM.

Question: With `CSc1cc(Cl)c(C)cc1S(=O)(=O)NC(=O)NNc1cccc(C(F)(F)F)n1` as the compound, how does the TGI read?
Answer: Its TGI is > 100 µM.

Question: With `COc1cccc2c1C(=O)c1c(O)c3c(c(O)c1C2=O)CC(O)(C(=O)CO)CC3OC1CC(N2CCOCC2C#N)C(O)C(C)O1` (centres undefined) as the compound, how does the TGI read?
Answer: The TGI was < 0.0001 µM.

Question: `CN1CCN(CCCNc2nc3ccc(Oc4ccc(NC(=O)Nc5cc(C(F)(F)F)ccc5F)cc4)cc3[nH]2)CC1` was tested. Which GI50 did it give?
Answer: Its GI50 is 3.43 µM.

Question: What about the TGI of the same compound?
Answer: The TGI was 7.21 µM.

Question: `CCO/C=N\C1=C(C#N)SC2=N/C(=C\c3ccc(OC)cc3)C(=O)N21` was tested. Which TGI did it give?
Answer: Its TGI is > 100 µM.

Tested on: KM12 colon
Assay: inhibition of tumour cell growth, NCI panel, 48 h

Question: For `CC(=O)OC1C(Oc2c(C)cc3c(c2O)[C@@H](C)CC[C@@H]3[C@@H](C)CCC=C(C)C)OCC(O)C1O` (some centres undefined), which TGI is on record?
Answer: Its TGI is 31.2 µM.

Question: Which TGI does the source give for `Cc1ccc2c(c1)CC1(Cc3ccccc3C1=O)C2=O` (centres undefined) here?
Answer: Its TGI is > 100 µM.

Question: `Cc1sc2nc(-c3cccc([N+](=O)[O-])c3)c(/C=N/N=C(N)N)n2c1C` was tested. Which TGI did it give?
Answer: The TGI was 3.24 µM.

Question: With `CSc1cc(Cl)c(C)cc1S(=O)(=O)NC(=O)NNc1cccc(C(F)(F)F)n1` as the compound, how does the TGI read?
Answer: Its TGI is > 100 µM.

Question: With `CN1CCN(CCCNc2nc3ccc(Oc4ccc(NC(=O)Nc5cc(C(F)(F)F)ccc5F)cc4)cc3[nH]2)CC1` as the compound, how does the GI50 read?
Answer: Its GI50 is 3.44 µM.

Question: What about the TGI of the same compound?
Answer: Its TGI is 6.74 µM.

Question: `CCO/C=N\C1=C(C#N)SC2=N/C(=C\c3ccc(OC)cc3)C(=O)N21` was tested. Which TGI did it give?
Answer: Its TGI is > 100 µM.

Tested on: CAKI-1 renal
Assay: inhibition of tumour cell growth, NCI panel, 48 h

Question: Which TGI does the source give for `CC(=O)OC1C(Oc2c(C)cc3c(c2O)[C@@H](C)CC[C@@H]3[C@@H](C)CCC=C(C)C)OCC(O)C1O` (some centres undefined) here?
Answer: Its TGI is 36 µM.
